Data set [1] has as its system maize LL-DAP transaminase. The data set is described as follows: Inhibitors of LL-DAP transaminase, ortho aminobenzaldehyde assay. The class given is biochemical, maize (Zea mays). Conditions: substrate LL-DAP 0.5 mM. On the procedure: (§1) For enzyme assays of crude proteins, extracts were prepared by grinding tissue in liquid nitrogen with 100 mM HEPESKOH (pH 7.6), followed by centrifugation at 10,000 g for 15 min, and then buffer exchange using an Amicon Ultra 30,000 MWCO filter. […] Reactions were incubated at 30° C. and the ΔA (440 nm) measured continuously. […] The reaction was incubated at 30° C., and the decrease in A340 was measured. […] The reaction was run to completion, determined by monitoring the increase in A340. […] The kinetic constants were calculated by nonlinear regression analysis using GraphPad Prizm version 4.03.
(§2) Assays for assessing the ability of certain compounds to inhibit LL-DAP aminotransferase have been performed and the results are shown below in Table V. The reactions were performed as described above.

The target in data set [2] is A. thaliana LL-DAP transaminase (Arabidopsis thaliana, UniProt Q93ZN9). The data set is described as follows: Inhibitors of LL-DAP transaminase, m-DAP dehydrogenase coupled assay. It is filed as biochemical. Conditions: inhibitor 40 mM, substrate LL-DAP 0.05 mM. On the procedure:
as §1, §2

Data set [3] has as its target T1, CT390 (Chlamydia trachomatis serovar D, UniProt O84395).
T1 construct: His-Tag (N); made in house; host or cells: E. coli
The data set is described as follows: Quantitative reverse assay of pure CT390. The class given is biochemical. The following applies: for Km: reverse assay, apparent Km; for Use as amino donor by CT390: reverse direction.

Data set [4] concerns the target Methanothermobacter thermautotrophicus LL-DAP transaminase MTH52 (Methanothermobacter thermautotrophicus, UniProt O26158). The data set is described as follows: Quantitative forward and reverse assays of purified LL-DAP transaminases (Example III). The following applies: reverse assay.
Method: This plasmid was transformed into E. coli BL21-CodonPlus®-RIPL for expression and purification of the recombinant protein.
For protein expression the E. coli strains were grown on LB at 37° C. to an OD600 nm of 0.5 and protein expression was then induced with 1 mM IPTG for 4 hr at 25° C. Cells were lysed by sonication in a solution of 50 mM sodium phosphate and 300 mM NaCl (pH 8.0). Metabolites in the extract were removed by buffer exchange using an Amicon Ultra 30,000 MWCO ultrafilter and sodium phosphate/NaCl buffer, and the concentrated soluble protein sample was used for measurement of enzyme activity as an initial assessment of enzyme function. When the recombinant protein was to be purified a larger cell culture was grown and lysed as described above, but the buffer exchange step was not carried out. […] The pure protein was then concentrated in an Amicon Ultra 30,000 MWCO ultrafilter, replacing the elution buffer with 100 mM HepesKOH, pH 7.6.
In data set [5] the target is T1, CT390. The data set is described as follows: Quantitative forward assay of pure CT390. It is filed as biochemical. The following applies: apparent Km. How it is done:
All enzyme assays were carried out essentially as described in Example I. Incubation temperature was 30° C. Kinetic constants were determined by varying substrate concentrations while keeping the co-substrate level constant at the concentration described below. Kinetic data were analyzed by non-linear regression analysis using GraphPad Prizm Version 4.03.
Quantitative assay of the physiologically forward reaction was carried out sequentially in a pre-reaction to generate THDP from m-DAP followed by an LL-DAP aminotransferase assay. […] The pre-reaction was run to completion, monitored by the increase in absorbance at 340 nm resulting from NADPH formation. The aminotransferase reaction was monitored at 398 nm to measure the formation of thioNADH. […] Subsequently, the aminotransferase assay was initiated by addition of CT390, bringing the total reaction volume to 1 mL.

For data set [6], the target named is Arabidopsis thaliana LL-DAP-AT (At4g33680), wild type, recombinant (lacks first 39 amino acids, hexa-His and S-TAG), SEQ ID NO: 7 (Arabidopsis thaliana, UniProt Q93ZN9). The data set is described as follows: Quantitative coupled reverse and forward assays of pure recombinant LL-DAP-AT (Table III). It is filed as biochemical. How it is done:
as §1
For this reason quantitative coupled assays were developed to assess the enzyme activity in both the reverse and forward directions. […] The reaction sequence is shown in Scheme 1.
The overall reaction series is shown in Scheme 2.
Thio-NADH has an absorbance maximum at 398 nm, which can be discerned from NADPH, which has an absorbance maximum at 340 nm. FIG. 4 illustrates such a reaction. […] Two plots are shown using 0.55 and 0.055 mM m-DAP.

For the next data set, the target named is AGD2 protein (At4g33680) (Arabidopsis thaliana, UniProt Q93ZN9). Conditions: transamination of Lys, Song et al. (2004); cited from earlier work.
A further data set has as its target T2, Arabidopsis LL-DAP-AT (Arabidopsis thaliana, UniProt Q93ZN9).
T2 construct: The protein extract was prepared from Arabidopsis leaves by grinding in liquid nitrogen; from tissue; host or cells: Arabidopsis leaves / axenically grown plants, crude soluble extract
The data set is described as follows: OAB assay of LL-DAP-AT activity in Arabidopsis leaf extract. It is filed as biochemical. The following applies: added at 1,000-fold excess over LL-DAP; data not shown. On the procedure:
FIGS. 2A and 2B. LL-DAP-AT activity in Arabidopsis. […] The reaction was incubated at 30° C. The protein extract was prepared from Arabidopsis leaves by grinding in liquid nitrogen with 100 mM HEPESKOH (pH 7.6), centrifugation at 10,000 g for 15 min, and buffer exchange using an Amicon Ultra 30,000 MWCO filter.
as §1
The rate of the reaction was directly proportional to the amount of protein extract added (FIG. 2B). […] If the extract was heated in a boiling water bath for 5 min, the activity was completely destroyed. […] Moreover, since the source material was axenically grown, the activity must have been derived from the Arabidopsis rather than a contaminating microorganism.

The test system of data set [7] is LL-DAP transaminase. The data set is described as follows: Quantitative forward assay of purified microbial LL-DAP transaminases. The class given is biochemical. How it is done:
(§3) Enzyme assays were performed as described above in Examples I and II.
(§4) The catalytic properties of sll0480, BF2643, Dhaf—3980, MTH52, and SfumDRAFT0821 were studied in greater detail using purified enzymes to determine their kinetic constants using quantitative forward and reverse assays.

In data set [8] the test system is LL-DAP transaminase. The data set is described as follows: Quantitative reverse assay of purified microbial LL-DAP transaminases. It is filed as biochemical. Conditions: reverse. How it is done:
as §3, §4

The target in data set [9] is T3, LL-DAP transaminase (Synechocystis sp., UniProt Q55828).
T3 construct: His-Tag; made in house; host or cells: E. coli BL21-CodonPlus-RIPL
The description is as above. It is filed as biochemical. The following applies: keto acids (5 mM) substituted for 2-oxoglutarate in reverse and for THDPA in forward reaction. On the procedure:
as §3, §4

Sequence of Arabidopsis thaliana LL-DAP-AT (At4g33680), wild type, recombinant (lacks first 39 amino acids, hexa-His and S-TAG), SEQ ID NO: 7 (Q93ZN9 40-461): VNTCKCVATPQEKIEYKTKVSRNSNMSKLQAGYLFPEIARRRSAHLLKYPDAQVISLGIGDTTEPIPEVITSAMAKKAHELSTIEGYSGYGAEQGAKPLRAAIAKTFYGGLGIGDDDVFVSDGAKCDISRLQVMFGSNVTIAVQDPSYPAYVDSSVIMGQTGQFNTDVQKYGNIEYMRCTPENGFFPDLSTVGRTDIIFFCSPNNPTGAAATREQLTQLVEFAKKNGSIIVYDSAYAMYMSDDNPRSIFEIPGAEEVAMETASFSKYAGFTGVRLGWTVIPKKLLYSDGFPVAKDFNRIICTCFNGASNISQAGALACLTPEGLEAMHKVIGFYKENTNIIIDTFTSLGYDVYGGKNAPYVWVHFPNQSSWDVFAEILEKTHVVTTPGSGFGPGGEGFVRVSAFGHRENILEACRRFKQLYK
T1 sequence (O84395 whole entry): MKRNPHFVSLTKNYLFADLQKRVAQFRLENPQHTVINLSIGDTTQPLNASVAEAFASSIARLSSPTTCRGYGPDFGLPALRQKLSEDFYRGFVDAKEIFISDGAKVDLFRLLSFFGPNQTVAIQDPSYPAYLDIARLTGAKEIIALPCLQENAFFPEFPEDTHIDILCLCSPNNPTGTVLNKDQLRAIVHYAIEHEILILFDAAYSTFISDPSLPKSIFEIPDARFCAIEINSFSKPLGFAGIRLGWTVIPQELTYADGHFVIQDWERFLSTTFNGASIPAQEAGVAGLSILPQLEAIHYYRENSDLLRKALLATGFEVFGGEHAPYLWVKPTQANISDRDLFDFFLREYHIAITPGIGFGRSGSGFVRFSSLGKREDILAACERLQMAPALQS
T2 sequence (Q93ZN9 46-461): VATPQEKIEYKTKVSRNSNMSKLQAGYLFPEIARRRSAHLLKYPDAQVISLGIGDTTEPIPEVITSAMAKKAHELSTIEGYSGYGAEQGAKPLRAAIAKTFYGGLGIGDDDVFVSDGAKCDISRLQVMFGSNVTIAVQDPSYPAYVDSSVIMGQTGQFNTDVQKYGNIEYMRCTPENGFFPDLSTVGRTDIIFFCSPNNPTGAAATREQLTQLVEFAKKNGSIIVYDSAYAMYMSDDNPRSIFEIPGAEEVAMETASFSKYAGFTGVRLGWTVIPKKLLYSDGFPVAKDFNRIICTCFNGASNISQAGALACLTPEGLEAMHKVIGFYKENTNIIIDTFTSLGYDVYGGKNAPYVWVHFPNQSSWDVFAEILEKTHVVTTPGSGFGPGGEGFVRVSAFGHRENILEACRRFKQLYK
Sequence of A. thaliana LL-DAP transaminase (Q93ZN9 40-461): as the sequence (Q93ZN9 40-461) above
Sequence of AGD2 protein (At4g33680) (Q93ZN9 46-461): as the sequence (Q93ZN9 46-461) above
T3 sequence (Q55828 whole entry): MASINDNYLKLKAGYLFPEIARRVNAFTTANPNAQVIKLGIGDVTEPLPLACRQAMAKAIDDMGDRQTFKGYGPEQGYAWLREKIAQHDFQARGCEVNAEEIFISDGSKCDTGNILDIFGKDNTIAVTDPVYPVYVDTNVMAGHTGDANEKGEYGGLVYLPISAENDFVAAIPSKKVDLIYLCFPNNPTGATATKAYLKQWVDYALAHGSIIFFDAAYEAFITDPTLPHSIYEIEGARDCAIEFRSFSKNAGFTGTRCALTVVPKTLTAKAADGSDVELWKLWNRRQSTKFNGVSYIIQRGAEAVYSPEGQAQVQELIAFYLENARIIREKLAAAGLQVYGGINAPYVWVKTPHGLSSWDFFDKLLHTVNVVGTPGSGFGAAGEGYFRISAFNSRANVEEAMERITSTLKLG
Sequence of Methanothermobacter thermautotrophicus LL-DAP transaminase MTH52 (O26158 whole entry): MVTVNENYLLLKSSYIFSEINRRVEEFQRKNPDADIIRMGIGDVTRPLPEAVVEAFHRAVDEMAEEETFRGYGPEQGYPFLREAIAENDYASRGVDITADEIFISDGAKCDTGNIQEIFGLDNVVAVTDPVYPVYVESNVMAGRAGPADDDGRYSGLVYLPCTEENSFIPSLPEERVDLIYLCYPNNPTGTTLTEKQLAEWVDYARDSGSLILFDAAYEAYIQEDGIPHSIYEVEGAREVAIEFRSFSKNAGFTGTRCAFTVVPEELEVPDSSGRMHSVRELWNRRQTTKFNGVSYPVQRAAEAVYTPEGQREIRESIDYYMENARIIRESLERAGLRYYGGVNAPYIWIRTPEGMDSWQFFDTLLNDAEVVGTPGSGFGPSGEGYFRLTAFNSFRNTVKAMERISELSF

In the case of `NC(CCCCC(=O)O)C(=O)O` (racemic) [L, D-α-aminopimelate], the Inhibition % in data set [1] (inhibitor 5 mM) is on record as 50+ %; in [1] (inhibitor 10 mM), 83+ %.

Regarding `NC(CCC(O)C(N)C(=O)O)C(=O)O` (racemic) [Threo-β-hydroxy DAP (racemic), Threo-β-hydroxy DAP], in [2], 40000 µM produced 68% inhibition.

With `O=C(O)CCC(=O)C(=O)O` [2-OG, 2-oxoglutarate, reference compound], the Km (commonly the concentration of substrate that gives half-maximal velocity) at CT390 [3] came out at 650 µM.

Regarding `O=C(O)CCC(=O)C(=O)O` [2-OG, 2-oxoglutarate], in [4], the Km is 800 µM. With `N[C@@H](CCC(=O)O)C(=O)O` [Glu, glutamate, reference compound], the Km at CT390 [5] is 1000 µM. Take `N[C@@H](CCC[C@H](N)C(=O)O)C(=O)O` [LL-DAP, LL-2,6-diaminopimelate]: the Km on CT390 [3] turned out to be 20 µM. Moreover, in data set [6] (compared with Km of 58.8 mM for Lys of Song et al. (2004)), the “Km for LL-DAP lower than the value for Lys” value is reported as 830 fold. The Kcat in data set [6] (reverse assay, pH 7.5, 30° C.) is 17.6 s⁻¹. Regarding `NCCCC[C@H](N)C(=O)O` [Lys, lysine], the Km at AGD2 protein (At4g33680) is 58800 µM. Also, the “Inhibition of the use of LL-DAP (LL-DAP-AT activity)” value at Arabidopsis LL-DAP-AT was “did not inhibit”. For the same molecule, on CT390 [3], the “Use as amino donor by CT390” value was “unable to use”. Regarding `O=C(O)C1=N[C@H](C(=O)O)CCC1` [THDPA, L-2,3,4,5-tetrahydrodipicolinate], on CT390 [5], the Km is 200 µM. Besides, in data set [6] (forward assay, pH 7.5), the Kcat was determined as 0.3 s⁻¹. As for `N[C@@H](CCSC[C@H](N)C(=O)O)C(=O)O` [cystathionine], the “Use as amino donor by CT390” value at CT390 [3] is listed as “unable to use”. In the case of `NC(CCCC(N)C(=O)O)C(=O)O` (centres unmarked) [m-DAP, m-2,6-diaminopimelate], at Arabidopsis LL-DAP-AT, the “Inhibition of the use of LL-DAP (LL-DAP-AT activity)” value was “did not inhibit”. Also, on CT390 [3], the “Use as amino donor by CT390” value was “able to use”. As for “Mth52: LL-DAP transaminase from M. thermoautotrophicum”, in the data set with LL-DAP transaminase [7], the “Vmax F” value amounted to 0.6 µmol/min/mg. Further, the Km with LL-DAP transaminase [8] (read-out: Km 2-OG, substrate 2-OG) turned out to be 800 µM. In the data set on LL-DAP transaminase [8], the “Vmax R” value worked out at 4.7 µmol/min/mg. As for “sII0480: LL-DAP transaminase from Synechocystis sp.”, in the data set on LL-DAP transaminase [7], the “Vmax F” value stood at 0.25 µmol/min/mg. In addition, the “Vmax R” value with LL-DAP transaminase [8] came to 3.3 µmol/min/mg. Besides, the Keto acid specificity entry in the data set with LL-DAP transaminase [9] is given as “active only with 2-oxoglutarate or THDPA”.

The values are drawn from patent publication US20090158455A1, “COMPOSITIONS AND METHODS FOR MODULATING LYSINE PRODUCTION” (priority 2005, published 2009).
